Test results: ChEMBL document CHEMBL3045550, “Design, synthesis and biological activities of new strobilurin derivatives containing substituted pyrazoles” (2010)

Assays:
Assay type in all cases: functional
Botrytis cinerea = assay: Antifungal activity against Botryotinia fuckeliana infected cucumber leaves assessed as disease control at 400 mg/l after 4 days relative to control
[1] = tested on: Pseudoperonospora cubensis; assay: Antifungal activity against Pseudoperonospora cubensis infected cucumber leaves assessed as disease control at 3.12 mg/l after 5 days relative to control
Pyricularia oryzae = assay: Antifungal activity against Magnaporthe oryzae infected 12 day old rice plant assessed as disease control at 400 mg/l after 6 days relative to control
[2] = tested on: Blumeria graminis f. sp. tritici; assay: Antifungal activity against Blumeria graminis f. sp. tritici infected seven-day-old wheat seedlings assessed as disease control at 12.5 mg/l after 7 days relative to control
[3] = tested on: Pseudoperonospora cubensis; assay: Antifungal activity against Pseudoperonospora cubensis infected cucumber leaves assessed as disease control at 400 mg/l after 5 days relative to control
[4] = tested on: Blumeria graminis f. sp. tritici; assay: Antifungal activity against Blumeria graminis f. sp. tritici infected seven-day-old wheat seedlings assessed as disease control at 400 mg/l after 7 days relative to control
Tetranychus cinnabarinus [5] = assay: Acaricidal activity against Tetranychus cinnabarinus (carmine spider mite) in kidney bean plants assessed as mortality at 600 mg/l after 48 hr relative to control
[6] = tested on: Blumeria graminis f. sp. tritici; assay: Antifungal activity against Blumeria graminis f. sp. tritici infected seven-day-old wheat seedlings assessed as disease control at 1.56 mg/l after 7 days relative to control
[7] = tested on: Pseudoperonospora cubensis; assay: Antifungal activity against Pseudoperonospora cubensis infected cucumber leaves assessed as disease control at 6.25 mg/l after 5 days relative to control
[8] = tested on: Pseudoperonospora cubensis; assay: Antifungal activity against Pseudoperonospora cubensis infected cucumber leaves assessed as disease control at 25 mg/l after 5 days relative to control
Tetranychus cinnabarinus [9] = assay: Acaricidal activity against Tetranychus cinnabarinus (carmine spider mite) in kidney bean plants assessed as mortality at 150 mg/l after 48 hr relative to control
Tetranychus cinnabarinus [10] = assay: Acaricidal activity against Tetranychus cinnabarinus (carmine spider mite) in kidney bean plants assessed as mortality at 38 mg/l after 48 hr relative to control

SMILES	Activity (Botrytis cinerea)	Activity [1]	Activity (Pyricularia oryzae)	Activity [2]	Activity [3]	Activity [4]	Activity (Tetranychus cinnabarinus [5])	Activity [6]	Activity [7]	Activity [8]	Activity (Tetranychus cinnabarinus [9])	Activity (Tetranychus cinnabarinus [10])
CO/C=C(/C(=O)OC)c1ccccc1COc1cc(-c2ccccc2OC)nn1C	50%	0%	100%	100%	100%	100%	0%	35%	0%	50%	–	–
CO/C=C(/C(=O)OC)c1ccccc1COc1cc(-c2ccc(OCC(F)(F)F)cc2)nn1C	0%	0%	0%	–	100%	60%	0%	–	0%	90%	–	–
CO/C=C(/C(=O)OC)c1ccccc1COc1cc(-c2ccc([N+](=O)[O-])cc2)nn1C	0%	50%	99%	100%	100%	100%	0%	95%	70%	100%	–	–
CO/C=C(/C(=O)OC)c1ccccc1COc1cc(-c2ccc(-c3ccc(Cl)cc3)cc2)nn1C	0%	0%	0%	95%	100%	100%	0%	0%	0%	100%	–	–
CO/C=C(/C(=O)OC)c1ccccc1COc1cc(-c2ccc(Oc3ccccc3)cc2)nn1C	0%	0%	0%	–	100%	0%	0%	–	0%	100%	–	–
CO/C=C(/C(=O)OC)c1ccccc1COc1c(C)c(-c2ccccc2)nn1C	0%	40%	0%	100%	100%	100%	100%	55%	60%	100%	0%	0%
CO/C=C(/C(=O)OC)c1ccccc1Oc1cc(Oc2ccccc2C#N)ncn1 [AZOXYSTROBIN]	100%	100%	100%	100%	100%	100%	–	60%	95%	100%	–	–
CO/N=C(/C(=O)OC)c1ccccc1COc1ccccc1C [KRESOXIM-METHYL]	100%	0%	100%	100%	–	100%	–	100%	0%	35%	–	–
CO/C=C(/C(=O)OC)c1ccccc1COc1c(C)c(-c2ccc(OCC(F)(F)F)cc2)nn1C [METHYL 2-(2-((1,4-DIMETHYL-3-(4-(2,2,2-TRIFLUOROETHOXY)PHENYL)-1H-PYRAZOL-5-YLOXY)METHYL)PHENYL)-3-METHOXYACRYLATE]	100%	0%	100%	100%	100%	100%	60%	65%	0%	40%	–	–
CO/C=C(/C(=O)OC)c1ccccc1COc1cc(-c2ccc(Cl)cc2Cl)nn1C [METHYL 2-(2-((3-(2,4-DICHLOROPHENYL)-1-METHYL-1H-PYRAZOL-5-YLOXY)METHYL)PHENYL)-3-METHOXYACRYLATE]	0%	20%	0%	100%	100%	100%	0%	0%	45%	100%	–	–
CO/C=C(/C(=O)OC)c1ccccc1COc1c(C)c(-c2ccc(Cl)cc2)nn1C [METHYL 2-(2-((3-(4-CHLOROPHENYL)-1,4-DIMETHYL-1H-PYRAZOL-5-YLOXY)METHYL)PHENYL)-3-METHOXYACRYLATE]	0%	0%	0%	100%	95%	100%	60%	100%	0%	0%	–	–
CO/C=C(/C(=O)OC)c1ccccc1COc1cc(-c2ccc(F)cc2)nn1C [METHYL 2-(2-((3-(4-FLUOROPHENYL)-1-METHYL-1H-PYRAZOL-5-YLOXY)METHYL)PHENYL)-3-METHOXYACRYLATE]	100%	75%	50%	–	100%	30%	0%	–	100%	100%	–	–
CO/C=C(/C(=O)OC)c1ccccc1COc1cc(-c2ccc(C(C)(C)C)cc2)nn1C [METHYL 2-(2-((3-(4-TERT-BUTYLPHENYL)-1-METHYL-1H-PYRAZOL-5-YLOXY)METHYL)PHENYL)-3-METHOXYACRYLATE]	50%	–	100%	–	100%	70%	0%	–	–	15%	–	–
CO/C=C(/C(=O)OC)c1ccccc1COc1cc(-c2ccc(SC)cc2)nn1C [METHYL 3-METHOXY-2-(2-((1-METHYL-3-(4-(METHYLTHIO)PHENYL)-1H-PYRAZOL-5-YLOXY)METHYL)PHENYL)ACRYLATE]	0%	0%	90%	–	100%	0%	0%	–	35%	100%	–	–
CO/C=C(/C(=O)OC)c1ccccc1COc1cc(-c2ccc(C)cc2)nn1C [METHYL 3-METHOXY-2-(2-((1-METHYL-3-P-TOLYL-1H-PYRAZOL-5-YLOXY)METHYL)PHENYL)ACRYLATE]	0%	0%	0%	35%	100%	100%	0%	0%	0%	0%	–	–
CO/C=C(/C(=O)OC)c1ccccc1COc1cc(-c2ccccc2)nn1C [METHYL 3-METHOXY-2-(2-((1-METHYL-3-PHENYL-1H-PYRAZOL-5-YLOXY)METHYL)PHENYL)ACRYLATE]	0%	0%	0%	0%	100%	100%	0%	0%	0%	0%	–	–
CO/C=C(/C(=O)OC)c1ccccc1COc1cc(-c2ccc(OC)cc2)nn1C [METHYL 3-METHOXY-2-(2-((3-(4-METHOXYPHENYL)-1-METHYL-1H-PYRAZOL-5-YLOXY)METHYL)PHENYL)ACRYLATE]	50%	0%	100%	65%	95%	100%	0%	0%	15%	90%	–	–
